In the Kinase Knowledgebase extract (Sharma et al. 2016):

How the values were obtained:
MAPK14 (human) [1] = target: MAPK14 (human) (UniProt Q16539); assay: Inhibition of IL-1 Production in Whole Blood
MAPK14 (human) [2] = target: MAPK14 (human) (UniProt Q16539); assay: Inhibition of IL-6 Production in Whole Blood
MAPK14 (human) [3] = target: MAPK14 (human) (UniProt Q16539); assay: Inhibition of TNF Production in Whole Blood
MAPK14 (human) [4] = target: MAPK14 (human) (UniProt Q16539); assay: Inhibition of IL-1 Production in LPS-Stimulated PBMCs; settings: pbmc
MAPK14 (human) [5] = target: MAPK14 (human) (UniProt Q16539); assay: Inhibition of TNF-alpha Production in LPS-Stimulated PBMCs; settings: pbmc

MAPK14 (human), sequence (Q16539 whole entry, looked up): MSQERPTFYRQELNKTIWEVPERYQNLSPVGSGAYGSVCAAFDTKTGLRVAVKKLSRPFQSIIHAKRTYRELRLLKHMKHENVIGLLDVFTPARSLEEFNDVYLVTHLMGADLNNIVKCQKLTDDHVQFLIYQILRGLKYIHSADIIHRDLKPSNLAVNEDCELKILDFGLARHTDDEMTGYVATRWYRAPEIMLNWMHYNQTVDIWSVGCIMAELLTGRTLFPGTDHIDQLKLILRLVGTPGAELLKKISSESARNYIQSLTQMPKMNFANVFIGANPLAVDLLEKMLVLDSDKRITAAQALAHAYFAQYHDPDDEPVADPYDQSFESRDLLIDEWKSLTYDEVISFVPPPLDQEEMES

Row | SMILES | IC50 (MAPK14 (human) [1]) [nM] | IC50 (MAPK14 (human) [2]) [nM] | IC50 (MAPK14 (human) [3]) [nM] | IC50 (MAPK14 (human) [4]) [nM] | IC50 (MAPK14 (human) [5]) [nM]
1 | O=C1NCN2N=C(Sc3ccc(F)cc3Cl)C=CC2=C1c1cc2c(cc1Cl)OCO2 | > 500 | 250 to 500 | > 500 |  | 
2 | O=c1ncn2nc(Sc3ccc(F)cc3Cl)ccc2c1-c1c(Cl)cccc1Cl | 250 to 500 | 250 to 500 | 250 to 500 |  | 
3 | Nc1ccccc1SC1=NN2CNC(=O)C(c3c(Cl)cccc3Cl)=C2C=C1 | > 500 | > 500 | > 500 |  | 
4 | Cc1cccc(Sc2ccc3c(-c4c(Cl)cccc4Cl)c(=O)ncn3n2)c1 |  |  |  | 100 to 500 | 100 to 500
5 | N=C(N)Nc1cc(F)c(F)cc1SC1=NN2CNC(=O)C(c3c(Cl)cccc3Cl)=C2C=C1 |  |  |  | > 500 | > 500
6 | Nc1ccc(Cl)c(C2=C3C=CC(Sc4ccc(F)cc4)=NN3CNC2=O)c1Cl | > 500 | > 500 | > 500 |  | 
7 | O=C(CN1CCOCC1)Nc1ccc(C2=C3C=CC(Sc4ccc(F)cc4)=NN3CNC2=O)c(Cl)c1 | > 500 | 250 to 500 | > 500 |  | 
8 | NC(=O)C(c1cccc(-c2ccccc2C=NO)n1)c1c(Cl)cccc1Cl (configuration not stated) | > 500 | > 500 | > 500 |  | > 500
9 | NC(=O)N(c1cccc(-c2ccc(F)cc2)n1)c1c(F)cccc1F | > 500 | > 500 | > 500 |  | 
10 | O=c1ncn2nc(Sc3ccccc3)ccc2c1-c1ccccc1Cl |  |  |  | > 500 | > 500
11 | NC(=O)C(c1cccc(-c2ccccc2CNCCO)n1)c1c(Cl)cccc1Cl (configuration not stated) |  |  |  | > 500 | > 500
12 | NC(=O)C(c1cccc(-c2ccccc2CN2CCCC2)n1)c1c(Cl)cccc1Cl (configuration not stated) |  |  |  | 100 to 500 | > 500
13 | Nc1ccc(C2=C3C=CC(Sc4ccc(F)cc4)=NN3CNC2=O)c(Cl)c1 | > 500 | 250 to 500 | > 500 |  | 
14 | Cc1cc(F)ccc1-c1cccc(N(C(N)=O)c2c(F)cccc2F)n1 | 250 to 500 | 250 to 500 | 250 to 500 |  | 
15 | COc1cc(Cl)c(C2=C3C=CC(Sc4ccc(F)cc4)=NN3CNC2=O)cc1OC |  |  |  |  | > 500
16 | NC(=O)C(c1ccc(C(O)c2ccccc2)cn1)c1c(Cl)cccc1Cl (configuration not stated) |  |  |  | 100 to 500 | 
17 | Nc1cc(F)ccc1SC1=NN2CNC(=O)C(c3c(Cl)cccc3Cl)=C2C=C1 | 250 to 500 | < 250 | 250 to 500 |  | 
18 | Cc1ccccc1-c1c(=O)ncn2nc(Sc3ccccc3)ccc12 |  |  |  | > 500 | > 500
19 | Nc1cc(C(F)(F)F)ccc1SC1=NN2CNC(=O)C(c3c(Cl)cccc3Cl)=C2C=C1 |  |  |  | 100 to 500 | > 500
20 | NC(=O)C(c1ccc(C(=O)c2ccccc2)cn1)c1c(Cl)cccc1Cl (configuration not stated) |  |  |  | > 500 | 

Row | SMILES | IC50 (MAPK14 (human) [1]) [nM] | IC50 (MAPK14 (human) [2]) [nM] | IC50 (MAPK14 (human) [3]) [nM] | IC50 (MAPK14 (human) [4]) [nM] | IC50 (MAPK14 (human) [5]) [nM]
21 | Cc1c(Sc2ccccc2)nn2cnc(=O)c(-c3c(Cl)cccc3Cl)c2c1C |  |  |  | > 500 | > 500
22 | O=c1ncn2nc(Sc3ccccc3)ccc2c1-c1c(F)cccc1F |  |  |  | > 500 | > 500
23 | Cc1cc(F)ccc1-c1cccc(N(C(N)=O)c2c(Cl)cccc2Cl)n1 | > 500 | 250 to 500 | > 500 |  | 
24 | NC(=O)C(c1cccc(-c2ccccc2CO)n1)c1c(Cl)cccc1Cl (configuration not stated) | > 500 | > 500 | > 500 |  | 
25 | COc1ccc(C2=C3C=CC(Sc4ccc(F)cc4)=NN3CNC2=O)c(Cl)c1OC | > 500 | > 500 | > 500 |  | 
26 | Cc1cc(Cl)ccc1SC1=NN2CNC(=O)C(c3c(Cl)cccc3Cl)=C2C=C1 | > 500 | 250 to 500 | 250 to 500 |  | 
27 | Cc1ccc(Sc2ccc3c(-c4c(Cl)cccc4Cl)c(=O)ncn3n2)cc1 |  |  |  | 100 to 500 | > 500
28 | O=C1NCN2N=C(Sc3ccc(F)cc3)C=CC2=C1c1cc2c(cc1Cl)OCO2 | 250 to 500 | 250 to 500 | > 500 |  | 
29 | CC(=O)Nc1ccc(C2=C3C=CC(Sc4ccc(F)cc4)=NN3CNC2=O)c(Cl)c1 | > 500 | > 500 | > 500 |  | 
30 | Cc1ccc(Sc2ccc3c(-c4c(Cl)cccc4Cl)c(=O)ncn3n2)cc1C |  |  |  | > 500 | > 500
31 | COc1ccccc1-c1c(=O)ncn2nc(Sc3ccccc3)ccc12 |  |  |  | > 500 | > 500
32 | Cc1ccc(SC2=NN3CNC(=O)C(c4c(Cl)cccc4Cl)=C3C=C2)c(C)c1 | > 500 | > 500 | > 500 |  | 
33 | CN(C)C(=O)c1ccccc1Sc1ccc2c(-c3c(Cl)cccc3Cl)c(=O)ncn2n1 |  |  |  | > 500 | > 500
34 | O=C1NCN2N=C(Sc3ccc(F)cc3Cl)C=CC2=C1c1c(Cl)cccc1Cl | 250 to 500 | < 250 | 250 to 500 |  | 
35 | COc1ccc(-c2cccc(C(C(N)=O)c3c(Cl)cccc3Cl)n2)cc1 (configuration not stated) |  |  |  | > 500 | 
36 | NC(=O)C(c1cccc(-c2cccc3ccccc23)n1)c1c(Cl)cccc1Cl (configuration not stated) | > 500 | > 500 | > 500 |  | 
37 | NC(=O)C(c1cccc(-c2cccs2)n1)c1c(Cl)cccc1Cl (configuration not stated) |  |  |  | > 500 | > 500
38 | O=c1ncn2nc(Sc3ccccc3)ccc2c1-c1c(F)cccc1C(F)(F)F |  |  |  | > 500 | > 500
39 | NC(=O)C(c1cccc(-c2ccccc2)n1)c1c(Cl)cccc1Cl (configuration not stated) | > 500 | > 500 | > 500 |  | 
40 | O=C1NCN2N=C(Sc3ccc(F)cc3)C=CC2=C1c1c(Cl)cccc1Cl | > 500 | 250 to 500 |  |  | 

Row | SMILES | IC50 (MAPK14 (human) [1]) [nM] | IC50 (MAPK14 (human) [2]) [nM] | IC50 (MAPK14 (human) [3]) [nM] | IC50 (MAPK14 (human) [4]) [nM] | IC50 (MAPK14 (human) [5]) [nM]
41 | O=C(CCl)Nc1ccc(C2=C3C=CC(Sc4ccc(F)cc4)=NN3CNC2=O)c(Cl)c1 | > 500 | > 500 | > 500 |  | 
42 | NC(=O)C(c1cccc(-c2ccc(Cl)cc2Cl)n1)c1c(Cl)cccc1Cl (configuration not stated) | > 500 | > 500 | > 500 |  | 
43 | O=C1NCN2N=C(Sc3ccccc3O)C=CC2=C1c1c(Cl)cccc1Cl | 250 to 500 | < 250 | 250 to 500 |  | 
44 | Cc1cc(F)ccc1-c1cccc(C(C(N)=O)c2c(Cl)cc(N)cc2Cl)n1 (configuration not stated) | > 500 | > 500 | > 500 |  | 
45 | O=C1NCN2N=C(Sc3ccccc3Br)C=CC2=C1c1c(Cl)cccc1Cl | > 500 | 250 to 500 | > 500 |  | 
46 | Cc1ccccc1-c1cccc(C(C(N)=O)c2c(Cl)cccc2Cl)n1 (configuration not stated) | > 500 | > 500 | > 500 |  | > 500
47 | CN(C)C=Nc1ccc(C2=C3C=CC(Sc4ccc(F)cc4Cl)=NN3CNC2=O)c(Cl)c1 | 250 to 500 | 250 to 500 | > 500 |  | 
48 | COc1ccc(C2=C3C=CC(Sc4ccc(F)cc4)=NN3CNC2=O)c(Cl)c1 | > 500 | > 500 | > 500 |  | > 500
49 | Cc1cc(F)ccc1-c1cccc(N(C(N)=O)c2cc3c(cc2Cl)OCO3)n1 | > 500 | > 500 | > 500 |  | 
50 | N#Cc1ccccc1SC1=NN2CNC(=O)C(c3c(Cl)cccc3Cl)=C2C=C1 | > 500 | > 500 | > 500 |  | 
51 | Cc1ccccc1-c1cccc(N(C(N)=O)c2c(F)cccc2F)n1 | > 500 | 250 to 500 | > 500 |  | 
52 | Cc1ccccc1SC1=NN2CNC(=O)C(c3c(Cl)cccc3Cl)=C2C=C1 | > 500 | 250 to 500 |  |  | 
53 | NC(=O)N(c1cccc(-c2ccccc2)n1)c1c(Cl)cccc1Cl | > 500 | > 500 | > 500 |  | 
54 | O=C1NCN2N=C(Sc3ccccc3CO)C=CC2=C1c1c(Cl)cccc1Cl | 250 to 500 | < 250 | < 250 |  | 
55 | Cc1cc(F)ccc1-c1cccc(C(C(N)=O)c2c(Cl)cccc2Cl)n1 (configuration not stated) | > 500 | > 500 | > 500 |  | 
56 | Cc1ccccc1-c1cccc(N(C(N)=O)c2c(Cl)cccc2Cl)n1 | > 500 | > 500 | > 500 |  | 
57 | Cc1cccc(-c2cccc(C(C(N)=O)c3c(Cl)cccc3Cl)n2)c1 (configuration not stated) | > 500 | > 500 | > 500 |  | > 500
58 | O=c1ncn2nc(Sc3ccccn3)ccc2c1-c1c(Cl)cccc1Cl | > 500 |  |  |  | > 500
